Experimental data as given in patent US20250213550A1, “COMPOUNDS AND METHODS FOR TREATING INFLAMMATORY BOWEL DISEASE” (Gilead Sciences, Inc., priority 2023, published 2025).
Like-named read-outs stand apart in the source and are kept apart here.

What was measured:
OATP/P-gp = experiment: Drug-drug interaction: mixed OATP/P-gp inhibitor CsA on PK of Compound A; assay type: in vivo, human; conditions: co-administration of Compound 1 600 mg with CsA 600 mg, fasted
Description: (§1) A Phase 1, open-label, single-center, multiple-cohort study was conducted to evaluate the effect of a mixed OATP/P-gp inhibitor (cyclosporine A; CsA) or food on the PK of Compound 1, the effect of Compound 1 on the PK of midazolam (MDZ), the effect of Compound 1 on the PK of OATP/CYP3A/BCRP substrates using atorvastatin (ATV), pravastatin (PRA), and rosuvastatin (ROS), and the effect of Compound 1 on the PK of a representative combined oral contraceptive (drospirenone/ethinyl estradiol; DRSP/EE), in healthy participants. 70 participants ages 18 to 55 years (inclusive) and having BMI of ≥18.0 kg/m^2 and ≤30.0 kg/m^2 were enrolled. For Cohorts 1-3, there were an approximately even distribution of healthy participants assigned male at birth and nonpregnant, nonlactating participants assigned female at birth. Cohort 4 included only healthy, nonpregnant, nonlactating participants assigned female at birth.
Treatment C: Single dose of Compound 1 600 mg, administered in the AM, under fasted conditions with a single dose of CsA 600 mg […]
(§2) Concentrations of Compound 1 and its active metabolites Compound A and Compound B, MDZ and its metabolite 1-OH-MDZ, ATV and its metabolite 2-OH-ATV, PRA, ROS, DRSP, and EE in plasma PK samples were determined by validated high performance liquid chromatography tandem mass spectrometry (LC-MS/MS) bioanalytical methods.

[1] = Food effect on Compound A plasma PK after single dose Compound 1 600 mg; assay type: in vivo, human; conditions: for Tmax: 600 mg, read-out: median Tmax
Description: as §1
Participants in Cohort 1 were randomized to 1 of 2 treatment sequences (ABC or BAC), in a 1:1 ratio.
Treatment A: Single dose of Compound 1 600 mg, administered in the AM, under fasted conditions
Treatment B: Single dose of Compound 1 600 mg, administered in the AM, within 5 minutes of completing a high-fat/high-calorie meal
• Periods 1, 2, and 3: Day 1, 0 (pre-dose, ≤5 min before dose), 0.25, 0.5, 1, 1.5, 2, 3, 4, 6, 8, 12, 18, 24, 36, 48, 72, and 96 hours post-dose; and at the early termination (ET) visit, as applicable
as §2
Pharmacokinetic parameters were determined for Compound 1 and its metabolites for all cohorts, MDZ and 1-OH-MDZ for Cohort 2; ATV, 2-OH-ATV, PRA, and ROS for Cohort 3; and DRSP and EE for Cohort 4.

[2] = Compound 1 600 mg single dose, vs fasting

Cn1ccc2c([C@H](Nc3cc(Cl)c4ncc(C#N)c(NCC(C)(C)C)c4c3)c3cn(C45CC(C4)C5)nn3)cccc2c1=O [Compound A]
increase of Compound A AUCinf (OATP/P-gp): 122%
increase of Compound A Cmax (OATP/P-gp): 27%
change in Cmax by high-fat/high-calorie meal [1, 2]: no change
increase of AUCinf by high-fat/high-calorie meal [1, 2]: 92%
Tmax ([1]; both sexes, human, plasma, oral, Compound 1 600 mg single dose, fasting): 4 h
Tmax ([1]; both sexes, human, plasma, oral, Compound 1 600 mg single dose, with a high-fat/high-calorie meal): 5 h
AUC(0-inf) ([1]; both sexes, human, plasma, oral, Cpd 1 600 mg single dose, fasting, Treatment A, mean): 46300 ng·h/mL
AUCinf % GLSM Ratio ([1]; non-fasting (test) vs fasting (reference), Cpd 1 600 mg): 192%
